Measurements from patent publication US20240002380A1, “REV-ERB AGONISTS” (Saint Louis University, priority 2020, published 2024).
Where two headings read alike, the source gives them in different places.

Assays:
REV-ERBβ = REV-ERBβ (Homo sapiens (Human), UniProt Q14995); experiment: FRET assay for REV-ERB ligands (REV-ERBβ LBD / NCoR ID2 peptide interaction); type: biochemical; details: TR-FRET, His-tagged REV-ERBβ LBD, fluorescein NCoR ID2 peptide; read-out: RevErbβ Inhibition IC50
Protocol: (§1) Example A: FRET Assay for REV-ERB Ligands
(§2) The capacity for compounds to function as ligands for either REV-ERBα or REV-ERBβ was assessed using a fluorescent resonance energy transfer assay that detects the interaction between these receptors and the Nuclear Receptor Corepressor (NCoR) protein (the ID2 corepressor interaction domain peptides is used). This interaction is known to be ligand dependent and thus this assay that can detect an alteration of the affinity of these two proteins is able to detect ligands. The His-tagged ligand binding domain (LBD) of either REV-ERBα or REV-ERBβ and fluorescein labeled NCoR ID2 peptide (Life Technologies #PV4624) is used in these assays. The His-tagged LBDs were expressed in E. coli (amino acids 281-614 REV-ERBα and 381-579 REV-ERBβ) and labeled with a Terbium (Tb) labeled anti-His antibody (Life Technologies #PV5895). The assay buffer was PBS (phosphate buffered saline) with 5 mM DTT (dithiothreitol). The final concentration of various reagents in the assay are: REV-ERB LBD (either isoform) [5 nM], Fluorescein labeled NCoR ID2 peptide [250 nM], Tb labeled anti-his antibody [10 nM], dimethylsulfoxide [1%] and test compound [varying concentrations]. The assay was performed in Corning NBS black 384-well plates in a total volume of 20 μl. The assay plate was incubated for 1 hour at room temperature protected from light and then TR-FRET was assessed on a Biotek plate reader with the following excitation/emission pairs (340 nm/495 nm and 340 nm/520 nm. The 520 nm/495 nm emission signal ratio was used as an indicator of the degree of interaction between the LBD and NCoR peptide and EC50's were calculated using GraphPad Prizm software.

REV-ERBα = REV-ERBα (Homo sapiens (Human), UniProt P20393); experiment: FRET assay for REV-ERB ligands (REV-ERBα LBD / NCoR ID2 peptide interaction); type: biochemical; details: TR-FRET, His-tagged REV-ERBα LBD, fluorescein NCoR ID2 peptide; read-out: RevErbα Inhibition IC50
Protocol: as §1, §2

[1] = Plasma pharmacokinetics after intraperitoneal injection in mice; type: in vivo; details: mouse, 5 mg/kg IP; for Vd/F: read-out: Vz/F
Protocol: Example B: Pharmacokinetics of Selected Compounds
Mice were injected intraperitoneally with (5 mg/kg) of the compound of Example 71 or Example 78 and plasma samples were taken at intervals of […], 0.25 hr, 0.5 hr. 1.0 hr, 3.0 hr, and 6.0 hr post-administration in order to analyze the pharmacokinetic profile of these compounds. The mean plasma content for male and for female mice at these time points post-injection are shown for Example 71 in FIG. 1A and Table 3, and for Example 78, in FIG. 1B and Table 4.

[2] = system: senescence accelerated mouse P8 (SAMP8) mouse model; details: SAMP8 mice, AD-like pathology; cited from earlier work

REV-ERBβ, sequence (Q14995 381-579): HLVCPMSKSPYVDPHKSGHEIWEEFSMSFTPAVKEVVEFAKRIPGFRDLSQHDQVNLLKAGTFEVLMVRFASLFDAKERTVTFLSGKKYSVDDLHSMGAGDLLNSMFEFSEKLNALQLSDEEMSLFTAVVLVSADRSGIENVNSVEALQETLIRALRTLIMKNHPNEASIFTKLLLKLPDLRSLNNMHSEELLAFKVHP
REV-ERBα, sequence (P20393 281-614): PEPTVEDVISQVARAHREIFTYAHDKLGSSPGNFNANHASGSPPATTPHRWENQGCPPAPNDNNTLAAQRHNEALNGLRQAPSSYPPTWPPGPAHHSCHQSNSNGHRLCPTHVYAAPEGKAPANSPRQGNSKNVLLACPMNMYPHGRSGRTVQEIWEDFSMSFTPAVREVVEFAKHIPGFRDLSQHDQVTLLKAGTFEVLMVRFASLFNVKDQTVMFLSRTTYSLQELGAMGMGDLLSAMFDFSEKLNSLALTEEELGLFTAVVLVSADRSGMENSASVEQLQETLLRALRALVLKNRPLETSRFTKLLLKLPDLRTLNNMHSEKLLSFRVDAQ

Compound	IC50 (REV-ERBβ) [nM]	IC50 (REV-ERBα) [nM]	further results
FC(F)(F)c1ccccc1Oc1ccc2cnccc2n1 [Example 46, 2-(2-(trifluoromethyl)phenoxy)-1,6-naphthyridine]	> 1000	250 to 1000	–
c1ccc2cc(Oc3ccc4ccncc4n3)ccc2c1 [Example 70, 2-(naphthalen-2-yloxy)-1,7-naphthyridine]	–	≤ 250	–
c1ccc(-c2ccccc2Oc2ccc3ncccc3n2)cc1 [Example 68, 2-([1,1′-biphenyl]-2-yloxy)-1,5-naphthyridine]	> 1000	250 to 1000	–
c1ccc(-c2ccccc2Oc2ccc3cnccc3n2)nc1 [Example 45, 2-(2-(pyridin-2-yl)phenoxy)-1,6-naphthyridine]	≤ 250	> 1000	–
COc1ccc(-c2ccc(C(F)(F)F)cc2Oc2ccc3cnccc3n2)cc1 [Example 78, 2-((4′-methoxy-4-(trifluoromethyl)-[1,1′-biphenyl]-2-yl)oxy)-1,6-naphthyridine]	–	–	AUC(0-t) ([1]; Table 4, female mice): 137 ng·h/mL; Cmax ([1]; Table 4, female mice): 269 ng/mL; Tmax ([1]; Table 4, female mice): 15 min; AUC(0-t) ([1]; Table 4, male mice): 343 ng·h/mL; CL/F ([1]; Table 4, male mice): 238 mL/min/kg; Cmax ([1]; Table 4, male mice): 330 ng/mL; Tmax ([1]; Table 4, male mice): 15 min; half-life ([1]; Table 4, male mice): 33 min; Vd/F ([1]; Table 4, male mice): 11.3 L/kg
c1ccc(-c2cccc(Oc3ccc4ccncc4n3)c2)cc1 [Example 51, 2-([1,1′-biphenyl]-3-yloxy)-1,7-naphthyridine]	> 1000	–	–
c1ccc(-c2ccccc2Oc2ccc3cnccc3n2)cc1 [Example 24, 2-(biphenyl-2-yloxy)-1,6-naphthyridine]	–	≤ 250	–
CCOC(=O)N1CCC(CN(Cc2ccc(Cl)cc2)Cc2ccc([N+](=O)[O-])s2)C1 (stereo not shown) [SR9009]	–	–	reversing the cognitive decline [2]: effective in reversing the cognitive decline
Cn1ncc2ccc(Oc3ccccc3-c3cccc(F)c3)nc21 [Example 14, 6-(3′-fluorobiphenyl-2-yloxy)-1-methyl-1H-pyrazolo[3,4-b]pyridine]	–	250 to 1000	–
c1ccc2c(Oc3ccc4ccncc4n3)cccc2c1 [Example 54, 2-(naphthalen-1-yloxy)-1,7-naphthyridine]	–	≤ 250	–
CNc1cccc(-c2ccccc2Oc2ncc3ccn(C)c3n2)c1 [Example 17, N-methyl-2′-(7-methyl-7H-pyrrolo[2,3-d]pyrimidin-2-yloxy)biphenyl-3-amine]	–	≤ 250	–
Cn1cnc2ccc(Oc3ccccc3-c3ccccc3)nc21 [Example 3, 5-([1,1′-biphenyl]-2-yloxy)-3-methyl-3H-imidazo[4,5-b]pyridine]	≤ 250	250 to 1000	–
FC(F)(F)c1ccccc1Oc1ccc2ccncc2n1 [Example 44, 2-(2-(trifluoromethyl)phenoxy)-1,7-naphthyridine]	≤ 250	–	–
c1ccc(-c2ccccc2Oc2ccc3ccncc3n2)cc1 [Example 59, 2-([1,1′-biphenyl]-2-yloxy)-1,7-naphthyridine]	≤ 250	≤ 250	–
c1ccc(C2CCCCC2)c(Oc2ccc3cnccc3n2)c1 [Example 49, 2-(2-cyclohexylphenoxy)-1,6-naphthyridine]	–	250 to 1000	–
Cc1cc(C)c(Oc2ccc3cnccc3n2)c(-c2ccccc2)c1 [Example 71, 2-((3,5-dimethyl-[1,1′-biphenyl]-2-yl)oxy)-1,6-naphthyridine]	–	–	AUC(0-inf) ([1]; female mice): 172 ng·h/mL; AUC(0-t) ([1]; female mice): 169 ng·h/mL; CL/F ([1]; female mice): 484 mL/min/kg; Cmax ([1]; female mice): 345 ng/mL; Tmax ([1]; female mice): 4.98 min; half-life ([1]; female mice): 31.2 min; Vd/F ([1]; female mice): 21.9 L/kg; AUC(0-inf) ([1]; male mice): 225 ng·h/mL; AUC(0-t) ([1]; male mice): 222 ng·h/mL; CL/F ([1]; male mice): 371 mL/min/kg; Cmax ([1]; male mice): 317 ng/mL; Tmax ([1]; male mice): 4.98 min; half-life ([1]; male mice): 28.2 min; Vd/F ([1]; male mice): 15.2 L/kg
c1ccc2c(Oc3ccc4cnccc4n3)cccc2c1 [Example 56, 2-(naphthalen-1-yloxy)-1,6-naphthyridine]	> 1000	> 1000	–
c1ccc(C2CCCCC2)c(Oc2ccc3ccncc3n2)c1 [Example 48, 2-(2-cyclohexylphenoxy)-1,7-naphthyridine]	–	≤ 250	–
Cc1cccc(-c2ccccc2Oc2ccc3ncn(C)c3n2)c1 [Example 4, 3-methyl-5-(3′-methylbiphenyl-2-yloxy)-3H-imidazo[4,5-b]pyridine]	≤ 250	–	–
Cc1cccc(-c2ccccc2Oc2ccc3cnn(C)c3n2)c1 [Example 13, 1-methyl-6-(3′-methylbiphenyl-2-yloxy)-1H-pyrazolo[3,4-b]pyridine]	–	> 1000	–
FC(F)(F)c1cc(Oc2ccccc2-c2ccccc2)nc2ccccc12 [Example 34, 2-([1,1′-biphenyl]-2-yloxy)-4-(trifluoromethyl)quinoline]	> 1000	–	–
COc1ccc2c(C(F)(F)F)cc(SCC(=O)NCCc3ccc(F)cc3)nc2c1 [Example 62, N-(4-fluorophenethyl)-2-((7-methoxy-4-(trifluoromethyl)quinolin-2-yl)thio)acetamide]	–	≤ 250	–
COc1ccc2c(C(F)(F)F)cc(Oc3ccccc3-c3ccccn3)nc2c1 [Example 36, 7-methoxy-2-(2-(pyridin-2-yl)phenoxy)-4-(trifluoromethyl)quinoline]	–	≤ 250	–
c1ccc(-c2ccccc2Oc2ncc3cnccc3n2)cc1 [Example 22, 2-(biphenyl-2-yloxy)pyrido[4,3-d]pyrimidine]	–	≤ 250	–
c1cc2ccc(OC3CCCCC3)nc2cn1 [Example 57, 2-(cyclohexyloxy)-1,7-naphthyridine]	–	> 1000	–
Cn1cnc2ccc(Oc3ccccc3-c3cccnc3)nc21 [Example 6, 3-methyl-5-(2-(pyridin-3-yl)phenoxy)-3H-imidazo[4,5-b]pyridine]	–	≤ 250	–
Cn1cnc2ccc(Oc3ccccc3-c3cccc(F)c3)nc21 [Example 5, 5-(3′-fluorobiphenyl-2-yloxy)-3-methyl-3H-imidazo[4,5-b]pyridine]	250 to 1000	≤ 250	–
Cc1nn(C)c2cnc(Oc3ccccc3-c3ccccc3)nc12 [Example 21, 5-([1,1′-biphenyl]-2-yloxy)-1,3-dimethyl-1H-pyrazolo[4,3-d]pyrimidine]	–	> 1000	–
Cn1ncc2cnc(Oc3ccccc3-c3cccnc3)nc21 [Example 10, 1-methyl-6-(2-(pyridin-3-yl)phenoxy)-1H-pyrazolo[3,4-d]pyrimidine]	≤ 250	≤ 250	–
